Converted amounts (≈) assume the structure as drawn.
How the values were obtained:
[1] = system: T. cruzi Tulahuen strain C2C4; test: In vitro assay for Trypanosoma cruzi in L-6 cells (β-galactosidase/CPRG); assay type: cell-based; conditions: Trypanosoma cruzi, L6; Tulahuen C2C4 in L-6 cells, 96 h; highest concentration tested 90 μg/mL; means of two determinations ± deviation
Description: Rat skeletal myoblasts (L-6 cells) were seeded in 96 well microtiter plates (2000 cells/well) in 100 μL RPMI 1640 medium with 10% FBS and 2 mM L-glutamine for 24 h. After that, the medium was removed and replaced by 100 μL per well containing 5000 trypomastigote forms of T. cruzi Tulahuen strain C2C4, containing the β-galactosidase (Lac Z) gene. The medium was removed from the wells after 48 h, and replaced with 100 μL fresh medium with or without a serial drug dilution of seven 3-fold dilution steps covering a range from 90 to 0.123 μg/mL. After 96 h of incubation, the plates were inspected under an inverted microscope to assure growth of the controls and sterility, after which the substrate CPRG/Nonidet ([…]) was added to all wells. A color reaction developed within 2–6 h and could be read photometrically at 540 nm. Data were transferred into the graphic program Softmax Pro (Molecular Devices Cooperation, Sunnyvale, CA, USA) and the IC50 values were calculated from the sigmoidal dose response curves. Benznidazole was the reference drug.

[2] = system: T. evansi; set-up: method as in PMID 26773165; conditions: cited from earlier work
[3] = system: P. falciparum K1 strain; test: In vitro assay for Plasmodium falciparum ([3H]-hypoxanthine incorporation); assay type: cell-based; conditions: K1 strain (chloroquine- and pyrimethamine-resistant), erythrocytic stages, means of two determinations ± deviation, read-out: IC50 Plasmodium falciparum
Description: Activity against the erythrocytic stages of P. falciparum was determined using an in vitro modified [^3H]-hypoxanthine incorporation assay, using the chloroquine- and pyrimethamine-resistant K1 strain [68]. Compounds were dissolved in DMSO at 10 mg/mL and further diluted in medium before added to parasite cultures incubated in RPMI 1640 medium without hypoxanthine, supplemented with HEPES (5.94 g/l), NaHCO3 (2.1 g/L), neomycin (100 U/mL), AlbumaxR (5 g/L), and washed human red cells A+ at 2.5% haematocrit (0.3% parasitaemia). Serial drug dilutions of seven 3-fold dilution steps covering a range from 90 to 0.123 μg/mL were prepared. The 96 well plates were incubated in a humidified atmosphere at 37 °C; 4% CO2, 3% O2, 93% N2. After 48 h 50 μL of ^3H-hypoxanthine (=0.5 μCi) was added to each well of the plate. The plates were incubated for a further 24 h under the same conditions. The plates were then harvested with a Betaplate™ cell harvester (Wallac, Zurich, Switzerland), and the red blood cells transferred onto a glass fiber filter then washed with distilled water. The dried filters were inserted into a plastic foil with 10 mL of scintillation fluid, and counted in a Betaplate™ liquid scintillation counter (Wallac, Zurich, Switzerland). […] IC50 values were calculated from the sigmoidal inhibition curves using Microsoft Excel. Chloroquine was used as positive control drug.

[4] = In vitro assay for cytotoxicity on mammalian cells (resazurin); assay type: cell-based, rat; conditions: rat skeletal myoblasts, 72 h; means of two determinations ± deviation; read-out: IC50 Cytotoxicity L6 cells
Description: Assays were performed in 96 well microtiter plates (4 × 10^4 L6 cells/well), each well containing 100 μL of RPMI 1640 medium supplemented with 1% L-glutamine (200 mM) and 10% FBS. L6 cells are a primary cell line derived from rat skeletal myoblasts. Serial drug dilutions of seven 3-fold dilution steps covering a range from 90 to 0.123 μg/mL were prepared. After 72 h of incubation, the plates were inspected under an inverted microscope to assure growth of the controls and sterile conditions. Resazurin solution (10 μL) (12.5 mg resazurin in 100 mL double-distilled water) was then added to each well and the plates incubated for another 2 h. The plates were then read with a Spectramax Gemini XS microplate fluorometer (Molecular Devices Cooperation, Sunnyvale, CA, USA) using an excitation wavelength of 536 nm and an emission wavelength of 588 nm. Data were analyzed using the microplate reader software Softmax Pro (Molecular Devices Cooperation, Sunnyvale, CA, USA). From the sigmoidal inhibition curves, the IC50 values were calculated. Podophyllotoxin was the positive control.

[5] = system: L. donovani (strain MHOM/ET/67/L82) amastigotes; test: In vitro assay for Leishmania donovani axenic amastigotes (resazurin); assay type: cell-based; conditions: axenic amastigotes, 72 h, means of two determinations ± deviation, read-out: IC50 Leishmania donovani
Description: Amastigotes of L. donovani (strain MHOM/ET/67/L82) were grown in axenic culture at 37 °C in SM medium at pH 5.4 supplemented with 10% heat-inactivated FBS under an atmosphere of 5% CO2. Culture medium (100 μL) with 10^5 amastigotes from axenic culture with or without a serial drug dilution was seeded in 96 well microtiter plates. Serial drug was prepared covering a range of dilutions from 90 to 0.123 μg/mL. After 72 h of incubation, the plates were inspected under an inverted microscope to assure growth of the controls and sterile conditions. Subsequently, 10 μL resazurin solution (12.5 mg resazurin dissolved in 100 mL double-distilled water) was added to each well and the plates were incubated for another 2 h. The plates were then read with a Spectramax Gemini XS microplate fluorometer (Molecular Devices Cooperation, Sunnyvale, CA, USA) using an excitation wavelength of 536 nm and an emission wavelength of 588 nm. Data were analyzed using the software Softmax Pro (Molecular Devices Cooperation, Sunnyvale, CA, USA). A decrease of fluorescence (=inhibition) was expressed as percentage of the fluorescence of control cultures and plotted against the drug concentrations. From the sigmoidal inhibition curves, the IC50 values were calculated. Miltefosine was used as a reference drug.

[6] = system: Trypanosoma brucei rhodesiense STIB 900; test: In vitro assay for Trypanosoma brucei rhodesiense (resazurin); assay type: cell-based; conditions: Trypanosoma brucei; STIB 900 blood stream forms, 72 h; means of two independent determinations ± deviation from the mean; read-out: IC50 Trypanosoma brucei rhodesiense
Description: Trypanosoma brucei rhodesiense STIB 900 strain, isolated in 1982 from a human patient in Tanzania and, after several mouse passages, cloned and adapted to axenic culture conditions, was used in this assay. Minimum essential medium (50 μL) supplemented with 25 mM HEPES, 1 g/L additional glucose, 1% MEM non-essential amino acids (100×), 0.2 mM 2-mercaptoethanol, 1 mM Na-pyruvate, and 15% heat inactivated horse serum was added to each well of a 96 well microtiter plate. Serial drug dilutions of seven 3-fold dilution steps covering a range from 90 to 0.123 μg/mL were prepared, and then 4 × 10^4 blood stream forms of T. b. rhodesiense STIB 900 in 50 μL were added to each well and the plate was incubated at 37 °C under a 5% CO2 atmosphere for 72 h. Resazurin solution (resazurin, 12.5 mg in 100 mL double-distilled water) (10 μL) was then added to each well and incubated for a further 2–4 h. At the end of the assay, the plates were read with a Spectramax Gemini XS microplate fluorometer (Molecular Devices Cooperation, Sunnyvale, CA, USA) using an excitation wavelength of 536 nm and an emission wavelength of 588 nm. Data were analyzed using the microplate reader software Softmax Pro (Molecular Devices Cooperation, Sunnyvale, CA, USA). Melarsoprol was used as standard drug.

## CC1=CC=C(C(C)C)CC1 [α-Terpinene]
[1]
  IC50: 49.1 ± 7.3 µg/mL (≈ 360 µM)
[2]
  animal longevity of T. evansi-infected mice (in words): extend animal longevity
[3]
  IC50: 3.7 ± 1.5 µg/mL (≈ 27.2 µM)
[4]
  IC50: 84.7 ± 4.3 µg/mL (≈ 622 µM)
[5]
  IC50: 10.5 ± 1.7 µg/mL (≈ 77.1 µM)
[6]
  IC50: 3.1 ± 1.6 µg/mL (≈ 22.8 µM)

— article PMC6930659, “Antiprotozoal Activity of Turkish Origanum onites Essential Oil and Its Components” (Molecules, 2019)
